System: 777334-354-R2-J4-PDC tumor spheroids with HUVEC/MSC, viability
Experiment: Anticancer human tumor 777334-354-R2-J4-PDC patient-derived pancreatic adenocarcinoma cell line growth inhibition [GQUAD]
Settings: for IC50: curve of first compound; for viability, T/C: stronger effect = lower value
Text: DNA G-quadruplex Stabilizer Agents in Combinations in Complex Spheroids
A high-throughput screen of multi-cell type tumor spheroids was designed to identify active combinations of DNA G-quadruplex stabilizer agents and targeted small molecules. Complex spheroids include a stromal component modeled by human endothelial cells (HUVEC) and fibroblasts modeled by human mesenchymal stem cells (MSCs). The concentration ranges selected for each drug and investigational agent were based upon clinically achievable concentrations if the clinical Cmax of the agent was known.
Compounds. The drugs and investigational agents: pidnarulex (CX-5461; NSC782164), APTO-253 (NSC789042), BRACO-19 (NSC847499), peposertib (NSC802822), ceralasertib (NSC780249), elimusertib (NSC800525), camonsertib (NSC841442), AZD-1390 (NSC803789), olaparib (NSC753686), talazoparib (NSC767125), ART-558 (NSC835418), sotorasib (NSC818433), MRTX-1133 (NSC836407), SN-38 (NSC673596), topotecan (NSC609699), etoposide (NSC141540), doxorubicin (NSC123127), gemcitabine (NSC613327), 5-fluorouracil (NSC19893), paclitaxel (NSC125973), vemurafenib (NSC761431), panobinostat (NSC761190), R-306465 (JNJ-16241199; NSC773264), adavosertib (NSC754352), TP-3654 (NSC805149), carboplatin (NSC241240), KSQ-4279 (NSC840948), and staurosporine (NSC755774) were obtained from the National Cancer Institute (NCI) Developmental Therapeutics Program Chemical Repository (34). The FDA-approved anticancer drug set is available from the NCI Developmental Therapeutics Program. […] The stock solutions were prepared in dimethyl sulfoxide (DMSO, Sigma-Aldrich, St. Louis, MO, cat. D2650) at 800-fold the tested concentration and stored at -70 degrees C prior to their use. All drugs and investigational agents were tested over a range starting from a high concentration at or near the clinical Cmax and decreasing in half-log increments. If the clinical Cmax for an agent had not been determined, the highest concentration tested was 10 microM.
2.3 Cell Culture. All cells were maintained in an incubator at 37 degrees C and 5% CO2 with 95% humidity. The PDC lines were cultured according to standard operating procedures established by the NCI PDMR. All PDCs were thawed and cultured in Matrigel-coated flasks prepared with a working solution of 1X Ham's F-12 nutrient mix, without supplementation (Invitrogen, cat. 11765054), 100 U/mL penicillin-streptomycin (Invitrogen, cat. 15140122), and 2.5% Matrigel (Corning Inc., cat. 354248) for the first three passages. The 857933-349-R-J2-PDC line was cultured in 6C/Colon 1B media, which includes advanced DMEM/F-12 (Thermo Fisher Scientific, cat. 12634028), 10 mM HEPES (Thermo Fisher Scientific, cat. 15630080), 1X GlutaMAX supplement (Thermo Fisher Scientific, cat. 35050061), 0.1 mg/mL primocin (InvivoGen, cat. ant-pm-2), 10% defined fetal bovine serum, heat inactivated (HyClone Laboratories Inc., cat. SH30070.03HI), 50% L-WRN conditioned media (ATCC, cat. CRL-3276), 1.25 mM N-Acetyl-L-cysteine (Sigma-Aldrich, cat. A9165), 10 mM nicotinamide (Sigma-Aldrich, cat. N0636), 1X B-27 supplement (Thermo Fisher Scientific, cat. 17504044), 1X N-2 supplement (Thermo Fisher Scientific, cat. 17502048), 10 microM Y-27632 dihydrochloride (Tocris Bioscience, cat. 1254), and 50 ng/mL human EGF recombinant protein (Thermo Fisher Scientific, cat. PHG0311). The 485176-168-R4-J1-PDC line was cultured in Panc media, which includes all 6C/Colon 1B media components plus 100 ng/mL human FGF-10 (Thermo Fisher Scientific, cat. 100-26), 500 nM SB-431542 (Selleckchem, cat. S1067), and gastrin (Tocris, cat. 3006).
[…]

[1] = second compound 0.0316 µM, first compound 0.0316 µM
[2] = second compound 0.0316 µM, first compound 0.316 µM
[3] = second compound 0.1 µM, first compound 0.0316 µM
[4] = second compound 0.1 µM, first compound 0.316 µM
[5] = second compound 0.316 µM, first compound 0.0316 µM
[6] = second compound 0.316 µM, first compound 0.316 µM
[7] = second compound 1 µM, first compound 0.0316 µM
[8] = second compound 1 µM, first compound 0.316 µM
[9] = second compound 3.16 µM, first compound 0.0316 µM
[10] = second compound 3.16 µM, first compound 0.316 µM
[11] = second compound 10 µM, first compound 0.0316 µM
[12] = second compound 10 µM, first compound 0.316 µM
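Note: spheroids exposed to compounds for 7 days before readout.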

COc1cccc2c1C(=O)c1c(O)c3c(c(O)c1C2=O)CC(O)(C(=O)CO)CC3OC1CC(N)C(O)C(C)O1 (centres undefined) + CN(C)c1ccc(Nc2c3ccc(NC(=O)CCN4CCCC4)cc3nc3cc(NC(=O)CCN4CCCC4)ccc23)cc1
IC50 (second compound 0.0316 µM): 0.909 µM
IC50 (second compound 0.1 µM): 0.841 µM
IC50 (second compound 0.316 µM): 0.783 µM
IC50 (second compound 1 µM): 0.679 µM
IC50 (second compound 3.16 µM): 0.633 µM
IC50 (second compound 10 µM): 0.858 µM
viability, T/C [1]: 109%
viability, T/C (second compound 0.0316 µM, first compound 0.1 µM): 84.4%
viability, T/C [2]: 74.2%
viability, T/C (second compound 0.0316 µM, first compound 1 µM): 49.3%
viability, T/C (second compound 0.0316 µM, first compound 3.16 µM): 25.2%
viability, T/C (second compound 0.0316 µM, first compound 10 µM): 9.52%
viability, T/C [3]: 100%
viability, T/C (second compound 0.1 µM, first compound 0.1 µM): 85.3%
viability, T/C [4]: 71.2%
viability, T/C (second compound 0.1 µM, first compound 1 µM): 47.1%
viability, T/C (second compound 0.1 µM, first compound 3.16 µM): 24.5%
viability, T/C (second compound 0.1 µM, first compound 10 µM): 13.8%
viability, T/C [5]: 107%
viability, T/C (second compound 0.316 µM, first compound 0.1 µM): 78.9%
viability, T/C [6]: 70.1%
viability, T/C (second compound 0.316 µM, first compound 1 µM): 47.9%
viability, T/C (second compound 0.316 µM, first compound 3.16 µM): 23.6%
viability, T/C (second compound 0.316 µM, first compound 10 µM): 14%
viability, T/C [7]: 89.7%
viability, T/C (second compound 1 µM, first compound 0.1 µM): 74.7%
viability, T/C [8]: 66.5%
viability, T/C (second compound 1 µM, first compound 1 µM): 42.9%
viability, T/C (second compound 1 µM, first compound 3.16 µM): 23.2%
viability, T/C (second compound 1 µM, first compound 10 µM): 12.2%
viability, T/C [9]: 83.7%
viability, T/C (second compound 3.16 µM, first compound 0.1 µM): 76.5%
viability, T/C [10]: 55%
viability, T/C (second compound 3.16 µM, first compound 1 µM): 48.4%
viability, T/C (second compound 3.16 µM, first compound 3.16 µM): 25%
viability, T/C (second compound 3.16 µM, first compound 10 µM): 15.2%
viability, T/C [11]: 77%
viability, T/C (second compound 10 µM, first compound 0.1 µM): 78.2%
viability, T/C [12]: 64%
viability, T/C (second compound 10 µM, first compound 1 µM): 50%
viability, T/C (second compound 10 µM, first compound 3.16 µM): 22.3%
viability, T/C (second compound 10 µM, first compound 10 µM): 14%

CC[C@@]1(O)C(=O)OCc2c1cc1n(c2=O)Cc2cc3c(CN(C)C)c(O)ccc3nc2-1 + Cc1cnc(CNC(=O)c2c(=O)c3ccc(N4CCCN(C)CC4)nc3n3c2sc2ccccc23)cn1
IC50 (second compound 0.0316 µM): 0.172 µM
IC50 (second compound 0.1 µM): 0.241 µM
IC50 (second compound 0.316 µM): 0.222 µM
IC50 (second compound 1 µM): 0.233 µM
IC50 (second compound 3.16 µM): 0.225 µM
IC50 (second compound 10 µM): 0.0787 µM
viability, T/C (second compound 0.0316 µM, first compound 0.000999 µM): 90.1%
viability, T/C (second compound 0.0316 µM, first compound 0.00316 µM): 79.8%
viability, T/C (second compound 0.0316 µM, first compound 0.00999 µM): 95.2%
viability, T/C [1]: 80.7%
viability, T/C (second compound 0.0316 µM, first compound 0.0999 µM): 59.4%
viability, T/C [2]: 39.7%
viability, T/C (second compound 0.1 µM, first compound 0.000999 µM): 102%
viability, T/C (second compound 0.1 µM, first compound 0.00316 µM): 74.7%
viability, T/C (second compound 0.1 µM, first compound 0.00999 µM): 83.1%
viability, T/C [3]: 66.8%
viability, T/C (second compound 0.1 µM, first compound 0.0999 µM): 60.8%
viability, T/C [4]: 45%
viability, T/C (second compound 0.316 µM, first compound 0.000999 µM): 73.8%
viability, T/C (second compound 0.316 µM, first compound 0.00316 µM): 76.3%
viability, T/C (second compound 0.316 µM, first compound 0.00999 µM): 76.7%
viability, T/C [5]: 70.1%
viability, T/C (second compound 0.316 µM, first compound 0.0999 µM): 59.3%
viability, T/C [6]: 46%
viability, T/C (second compound 1 µM, first compound 0.000999 µM): 64.7%
viability, T/C (second compound 1 µM, first compound 0.00316 µM): 74.8%
viability, T/C (second compound 1 µM, first compound 0.00999 µM): 76%
viability, T/C [7]: 69.5%
viability, T/C (second compound 1 µM, first compound 0.0999 µM): 57%
viability, T/C [8]: 47%
viability, T/C (second compound 3.16 µM, first compound 0.000999 µM): 56.8%
viability, T/C (second compound 3.16 µM, first compound 0.00316 µM): 67.7%
viability, T/C (second compound 3.16 µM, first compound 0.00999 µM): 62.2%
viability, T/C [9]: 63.3%
viability, T/C (second compound 3.16 µM, first compound 0.0999 µM): 54.9%
viability, T/C [10]: 47.4%
viability, T/C (second compound 10 µM, first compound 0.000999 µM): 56.1%
viability, T/C (second compound 10 µM, first compound 0.00316 µM): 57.9%
viability, T/C (second compound 10 µM, first compound 0.00999 µM): 60.2%
viability, T/C [11]: 53.2%
viability, T/C (second compound 10 µM, first compound 0.0999 µM): 47.8%
viability, T/C [12]: 38.9%
